The results in this text go back to patent US20240246942A1, “KINASE INHIBITORS FOR THE TREATMENT OF NEURODEGENERATIVE DISEASES” (priority 2020, published 2024).

What all share (assay): biochemical
Assay [1] addresses T1, panel of 374 wild-type kinases (Homo sapiens, UniProt P54753).
T1 construct: purchased Reaction Biology Corporation
T1 sequence (P54753 34-998): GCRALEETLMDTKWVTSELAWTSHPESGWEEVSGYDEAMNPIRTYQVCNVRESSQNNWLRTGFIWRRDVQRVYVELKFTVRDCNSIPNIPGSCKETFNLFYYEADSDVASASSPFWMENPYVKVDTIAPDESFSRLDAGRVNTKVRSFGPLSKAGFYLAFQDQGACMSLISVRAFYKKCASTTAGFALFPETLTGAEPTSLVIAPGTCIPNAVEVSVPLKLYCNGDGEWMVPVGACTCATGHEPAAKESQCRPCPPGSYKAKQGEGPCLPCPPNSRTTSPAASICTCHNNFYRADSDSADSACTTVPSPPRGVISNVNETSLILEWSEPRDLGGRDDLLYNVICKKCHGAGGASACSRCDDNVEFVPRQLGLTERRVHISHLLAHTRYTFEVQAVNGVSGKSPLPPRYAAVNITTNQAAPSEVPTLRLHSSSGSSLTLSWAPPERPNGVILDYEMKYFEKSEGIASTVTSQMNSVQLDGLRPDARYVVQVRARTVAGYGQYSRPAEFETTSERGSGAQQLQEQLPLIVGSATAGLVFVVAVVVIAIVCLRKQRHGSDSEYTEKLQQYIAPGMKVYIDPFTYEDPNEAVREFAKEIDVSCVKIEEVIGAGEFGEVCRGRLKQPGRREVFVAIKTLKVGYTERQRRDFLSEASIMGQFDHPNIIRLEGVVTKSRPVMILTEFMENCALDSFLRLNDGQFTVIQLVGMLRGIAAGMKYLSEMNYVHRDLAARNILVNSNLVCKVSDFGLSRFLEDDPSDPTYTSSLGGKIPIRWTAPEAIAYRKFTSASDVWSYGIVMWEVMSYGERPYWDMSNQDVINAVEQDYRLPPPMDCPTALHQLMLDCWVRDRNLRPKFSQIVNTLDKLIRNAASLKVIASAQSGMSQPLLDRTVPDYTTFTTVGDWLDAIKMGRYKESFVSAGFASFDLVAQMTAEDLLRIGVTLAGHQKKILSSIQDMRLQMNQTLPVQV
Conditions: read-out: % Enzyme Activity (relative to DMSO controls), EPHB3.

Assay [2] addresses T2, panel of 374 wild-type kinases (Homo sapiens, UniProt Q8TD19).
T2 construct: purchased Reaction Biology Corporation
T2 sequence (Q8TD19 1-979): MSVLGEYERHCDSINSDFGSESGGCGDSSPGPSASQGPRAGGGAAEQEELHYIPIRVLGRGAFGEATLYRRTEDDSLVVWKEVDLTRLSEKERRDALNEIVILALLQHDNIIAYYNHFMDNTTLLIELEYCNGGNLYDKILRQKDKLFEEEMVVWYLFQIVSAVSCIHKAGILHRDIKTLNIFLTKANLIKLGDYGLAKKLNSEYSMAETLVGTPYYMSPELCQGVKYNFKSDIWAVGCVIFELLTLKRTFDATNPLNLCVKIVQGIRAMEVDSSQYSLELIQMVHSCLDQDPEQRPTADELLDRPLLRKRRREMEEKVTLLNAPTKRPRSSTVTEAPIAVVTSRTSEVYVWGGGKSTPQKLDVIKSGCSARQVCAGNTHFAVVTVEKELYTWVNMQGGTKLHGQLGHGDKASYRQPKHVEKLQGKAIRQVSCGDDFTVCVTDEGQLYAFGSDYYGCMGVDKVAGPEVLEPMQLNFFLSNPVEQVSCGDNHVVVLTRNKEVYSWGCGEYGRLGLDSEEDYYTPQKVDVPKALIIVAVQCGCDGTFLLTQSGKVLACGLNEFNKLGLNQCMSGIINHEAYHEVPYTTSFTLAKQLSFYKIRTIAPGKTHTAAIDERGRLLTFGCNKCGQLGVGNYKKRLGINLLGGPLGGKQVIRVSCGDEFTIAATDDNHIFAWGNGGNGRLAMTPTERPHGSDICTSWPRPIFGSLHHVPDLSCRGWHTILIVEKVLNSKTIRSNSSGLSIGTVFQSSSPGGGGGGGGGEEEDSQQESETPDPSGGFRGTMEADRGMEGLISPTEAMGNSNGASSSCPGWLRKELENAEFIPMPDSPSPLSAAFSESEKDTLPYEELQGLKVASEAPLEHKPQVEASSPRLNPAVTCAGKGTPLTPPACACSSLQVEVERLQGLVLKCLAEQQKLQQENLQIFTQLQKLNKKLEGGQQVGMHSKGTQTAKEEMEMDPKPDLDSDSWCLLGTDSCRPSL
Conditions: read-out: % Enzyme Activity (relative to DMSO controls), NEK9.

Assay [3] addresses T3, panel of 374 wild-type kinases (Homo sapiens, UniProt P51617).
T3 construct: purchased Reaction Biology Corporation
Conditions: read-out: % Enzyme Activity (relative to DMSO controls), IRAK1.

For assay [4], the target named is T4, panel of 374 wild-type kinases (Homo sapiens, UniProt Q92630).
T4 construct: purchased Reaction Biology Corporation
T4 sequence (Q92630 1-601): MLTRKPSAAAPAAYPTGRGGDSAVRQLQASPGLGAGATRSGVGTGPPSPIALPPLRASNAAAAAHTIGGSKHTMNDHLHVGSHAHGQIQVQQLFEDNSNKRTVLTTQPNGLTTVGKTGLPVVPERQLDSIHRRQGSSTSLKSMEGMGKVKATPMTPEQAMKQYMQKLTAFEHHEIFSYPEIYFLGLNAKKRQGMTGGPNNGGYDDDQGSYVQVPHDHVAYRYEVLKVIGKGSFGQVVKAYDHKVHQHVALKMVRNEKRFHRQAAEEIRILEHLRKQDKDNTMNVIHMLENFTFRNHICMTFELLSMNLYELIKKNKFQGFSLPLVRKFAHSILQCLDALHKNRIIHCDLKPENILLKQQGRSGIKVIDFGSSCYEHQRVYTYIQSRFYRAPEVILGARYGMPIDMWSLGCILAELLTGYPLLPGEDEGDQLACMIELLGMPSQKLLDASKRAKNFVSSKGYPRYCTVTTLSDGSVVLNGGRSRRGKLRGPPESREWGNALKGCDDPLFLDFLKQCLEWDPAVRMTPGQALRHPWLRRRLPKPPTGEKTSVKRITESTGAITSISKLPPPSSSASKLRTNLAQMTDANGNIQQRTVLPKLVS
Conditions: read-out: % Enzyme Activity (relative to DMSO controls), DYRK2.

T3 sequence (P51617 whole entry): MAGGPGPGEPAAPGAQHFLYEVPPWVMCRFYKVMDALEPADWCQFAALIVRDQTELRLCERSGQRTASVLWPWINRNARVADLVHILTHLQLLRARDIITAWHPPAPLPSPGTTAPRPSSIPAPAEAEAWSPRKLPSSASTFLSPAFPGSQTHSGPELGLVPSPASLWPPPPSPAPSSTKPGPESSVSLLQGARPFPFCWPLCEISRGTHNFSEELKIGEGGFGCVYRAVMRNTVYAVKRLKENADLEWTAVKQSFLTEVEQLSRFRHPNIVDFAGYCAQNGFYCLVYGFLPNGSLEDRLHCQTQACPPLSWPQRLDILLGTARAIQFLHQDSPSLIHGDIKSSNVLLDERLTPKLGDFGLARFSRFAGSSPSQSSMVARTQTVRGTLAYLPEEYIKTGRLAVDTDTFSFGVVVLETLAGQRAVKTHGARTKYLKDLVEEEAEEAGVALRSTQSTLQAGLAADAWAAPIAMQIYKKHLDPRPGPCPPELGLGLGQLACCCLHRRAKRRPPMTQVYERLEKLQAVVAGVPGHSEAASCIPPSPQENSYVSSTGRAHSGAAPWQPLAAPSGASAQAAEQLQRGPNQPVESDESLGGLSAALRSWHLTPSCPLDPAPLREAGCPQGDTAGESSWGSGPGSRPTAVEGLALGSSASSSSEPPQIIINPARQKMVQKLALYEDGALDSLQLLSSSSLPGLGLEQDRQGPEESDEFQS

As to `O=C(Nc1cnn(-c2csc(C(=O)NC3COC3)c2)c1)Nc1ccccc1Cl` [Compound 17, 4-(4-(3-(2-chlorophenyl)ureido)-1H-pyrazol-1-yl)-N-(oxetan-3-yl)thiophene-2-carboxamide], the remaining activity at 5 µM in assay [1] came to 95.6%; in assay [2] it was 104%; in assay [3] it was 112%; in assay [4], 88.2%.

For `O=C(Nc1cnn(-c2csc(C(=O)NC3COC3)c2)c1)Nc1c(F)cccc1Cl` [Compound 25, 4-(4-(3-(2-chloro-6-fluorophenyl)ureido)-1H-pyrazol-1-yl)-N-(oxetan-3-yl)thiophene-2-carboxamide], the remaining activity at 5 µM in assay [1] is 96.5%; in assay [2], 88.4%; in assay [3], 107%; in assay [4] it was 93.6%.

Take `Cc1sc(C(=O)NC2COC2)cc1-n1cc(NC(=O)Nc2c(F)cccc2Cl)cn1` [Compound 27, 4-(4-(3-(2-chloro-6-fluorophenyl)ureido)-1H-pyrazol-1-yl)-5-methyl-N-(oxetan-3-yl)thiophene-2-carboxamide]: the remaining activity at 10 µM in assay [1] (10 uM) turned out to be 97.2%; in assay [2] (10 uM) it was 111%; in assay [3] (10 uM), 79.9%; in assay [4] (10 uM) it was 96.3%.
